PubChem BioAssay AID256 (DTP/NCI, 2004)
Values joined by “and” are separate entries in the source; they are usually repeats but may differ in a detail not shown here. Equal entries are not always repeated. Toxic doses and inconclusive results are not listed. How the source made its calls: active means survival T/C of 150% or more; inactive means T/C below 125% in these data.

Test system: CD2F1 mice, L1210 leukemia ip, survival T/C
Assay: NCI In Vivo Anticancer Drug Screen. Data for tumor model L1210 Leukemia (intraperitoneal) in CD2F1 (CDF1) mice
Settings: higher = longer survival
Procedure, shortened: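 Each value reflects a quotient of treated over vehicle control outcomes in mice with a transplanted tumor.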

[1] = endpoint: mean survival time, dose: 50.0 mg/kg/injection, schedule: Q04DX002 (ip), vehicle: saline with Tween-80
[2] = endpoint: mean survival time, dose: 100.0 mg/kg/injection, schedule: Q04DX002 (ip), vehicle: saline with Tween-80
[3] = endpoint: mean survival time, dose: 200.0 mg/kg/injection, schedule: Q01DX001 (ip), vehicle: saline with Tween-80
[4] = endpoint: mean survival time, dose: 12.5 mg/kg/injection, schedule: Q01DX009 (ip), vehicle: saline with Tween-80
[5] = endpoint: mean survival time, dose: 25.0 mg/kg/injection, schedule: Q01DX009 (ip), vehicle: saline with Tween-80
[6] = endpoint: mean survival time, dose: 100.0 mg/kg/injection, schedule: Q01DX001 (ip), vehicle: saline with Tween-80
[7] = endpoint: mean survival time, dose: 50.0 mg/kg/injection, schedule: Q01DX009 (ip), vehicle: saline with Tween-80
[8] = endpoint: mean survival time, dose: 100.0 mg/kg/injection, schedule: Q01DX009 (ip), vehicle: saline with Tween-80
[9] = endpoint: mean survival time, dose: 25.0 mg/kg/injection, schedule: Q04DX003 (ip), vehicle: saline with Tween-80
[10] = endpoint: mean survival time, dose: 100.0 mg/kg/injection, schedule: Q04DX003 (ip), vehicle: saline with Tween-80
[11] = endpoint: mean survival time, dose: 200.0 mg/kg/injection, schedule: Q01DX009 (ip), vehicle: saline with Tween-80
[12] = endpoint: mean survival time, dose: 200.0 mg/kg/injection, schedule: Q04DX003 (ip), vehicle: saline with Tween-80
[13] = endpoint: mean survival time, dose: 400.0 mg/kg/injection, schedule: Q04DX003 (ip), vehicle: saline with Tween-80
[14] = endpoint: mean survival time, dose: 100.0 mg/kg/injection, schedule: Q04DX003 (ip), vehicle: saline
[15] = endpoint: mean survival time, dose: 200.0 mg/kg/injection, schedule: Q04DX003 (ip), vehicle: saline
[16] = endpoint: mean survival time, dose: 400.0 mg/kg/injection, schedule: Q04DX003 (ip), vehicle: saline

Measured: T/C

CC1SC(=Nc2ccc(S(N)(=O)=O)cc2)NC1=O (stereo not given)
inactive: [1] 105 % of control | [2] 105 % of control | [3] 89 % of control | endpoint: mean survival time, dose: 200.0 mg/kg/injection, schedule: Q04DX002 (ip), vehicle: saline with Tween-80 102 % of control

CC(=O)[CH-]C(C)=O.CC(=O)[CH-]C(C)=O.CC(N)CN.[Ni+2]
inactive: endpoint: mean survival time, dose: 50.0 mg/kg/injection, schedule: Q01DX009 (ip), vehicle: other 100 % of control

CC(C)N(C=C(C#N)C#N)C(C)C
inactive: [4] 91 % of control | endpoint: mean survival time, dose: 25.0 mg/kg/injection, schedule: Q01DX001 (ip), vehicle: saline with Tween-80 103 % of control | [5] 96 % of control | endpoint: mean survival time, dose: 50.0 mg/kg/injection, schedule: Q01DX001 (ip), vehicle: saline with Tween-80 107 % of control | [6] 98 % of control

O=C1OC(=O)c2ccccc21
inactive: endpoint: mean survival time, dose: 25.0 mg/kg/injection, schedule: Q01DX009 (ip), vehicle: Klucel (hydroxypropylcellulose) (HPC) 91 % of control | endpoint: mean survival time, dose: 50.0 mg/kg/injection, schedule: Q01DX009 (ip), vehicle: Klucel (hydroxypropylcellulose) (HPC) 95 % of control | endpoint: mean survival time, dose: 100.0 mg/kg/injection, schedule: Q01DX009 (ip), vehicle: Klucel (hydroxypropylcellulose) (HPC) 95 % of control

COc1cc(OC)c(NC(=O)ON2C(=O)c3ccccc3C2=O)cc1Cl
inactive: endpoint: mean survival time, dose: 0.19 mg/kg/injection, schedule: Q01DX009 (ip), vehicle: saline with Tween-80 97 % of control | endpoint: mean survival time, dose: 0.39 mg/kg/injection, schedule: Q01DX009 (ip), vehicle: saline with Tween-80 94 % of control | endpoint: mean survival time, dose: 0.78 mg/kg/injection, schedule: Q01DX009 (ip), vehicle: saline with Tween-80 100 % of control | endpoint: mean survival time, dose: 1.56 mg/kg/injection, schedule: Q01DX009 (ip), vehicle: saline with Tween-80 97 % of control | endpoint: mean survival time, dose: 3.12 mg/kg/injection, schedule: Q01DX009 (ip), vehicle: saline with Tween-80 116 % of control and 96 % of control | endpoint: mean survival time, dose: 6.25 mg/kg/injection, schedule: Q01DX009 (ip), vehicle: saline with Tween-80 100 % of control | [4] 103 % of control | [5] 103 % of control | [7] 101 % of control | [8] 103 % of control

O=c1oc(-c2ccc(Cl)cc2)nc2cc(Cl)ccc12
inactive: [9] 93 % of control | endpoint: mean survival time, dose: 50.0 mg/kg/injection, schedule: Q04DX003 (ip), vehicle: saline with Tween-80 93 % of control | [10] 86 % of control and 89 % of control

NC(N)=NC(N)=Nc1ccc(Cl)cc1
inactive: [8] 104 % of control | [11] 106 % of control

CN(C)C(=S)NN
inactive: endpoint: mean survival time, dose: 1.5 mg/kg/injection, schedule: Q01DX001 (ip), vehicle: saline 92 % of control | endpoint: mean survival time, dose: 3.0 mg/kg/injection, schedule: Q01DX001 (ip), vehicle: saline 97 % of control | endpoint: mean survival time, dose: 6.0 mg/kg/injection, schedule: Q01DX001 (ip), vehicle: saline 97 % of control

CC(=O)NC(C)(C)C
inactive: [10] 98 % of control | [12] 106 % of control | [13] 104 % of control

C=CCNC(=O)OCC
inactive: [8] 100 % of control | [11] 98 % of control

O=c1nc(-c2ccccc2)c(-c2ccccc2)n[nH]1
inactive: [14] 97 % of control | [15] 94 % of control

CN(C=O)c1cc2c3c(c1)CCCN3CCC2
inactive: [7] 100 % of control | [6] 105 % of control | [3] 104 % of control

CCOC(=O)c1cc2c3n(c1=O)CCCC3C(c1ccc(Cl)c(Cl)c1)OC2=O (stereo not given)
inactive: [14] 98 % of control | [15] 101 % of control | [16] 104 % of control

CC([NH-])CC(C)[NH-].[Cl][Pt+2][Cl] (stereo not given)
inactive: endpoint: mean survival time, dose: 3.12 mg/kg/injection, schedule: Q04DX003 (ip), vehicle: saline with Tween-80 122 % of control | [9] 92 % of control
active: endpoint: mean survival time, dose: 6.25 mg/kg/injection, schedule: Q04DX003 (ip), vehicle: saline with Tween-80 162 % of control and 168 % of control

N#CC1(Cc2ccc(OCc3ccccc3)c(OCc3ccccc3)c2)c2ccccc2C=CN1C(=O)c1ccccc1 (stereo not given)
inactive: [5] 103 % of control | [7] 100 % of control | [8] 91 % of control

COC(=O)c1c(F)c(F)c(Nc2c(F)c(F)c(C(=O)OC)c(F)c2F)c(F)c1F
inactive: [10] 95 % of control | [12] 95 % of control | [13] 91 % of control

CCCCCCCCCCCCCCCCCCN1C(=O)C2C3CCC(O3)C2C1=O (stereo not given)
inactive: endpoint: mean survival time, dose: 25.0 mg/kg/injection, schedule: Q04DX002 (ip), vehicle: saline with Tween-80 98 % of control | [1] 98 % of control | [2] 94 % of control

COc1cc([NH-])c([NH-])cc1OC.[Cl][Pt+2][Cl]
inactive: endpoint: mean survival time, dose: 1.25 mg/kg/injection, schedule: Q01DX009 (ip), vehicle: saline with Tween-80 103 % of control | endpoint: mean survival time, dose: 2.5 mg/kg/injection, schedule: Q01DX009 (ip), vehicle: saline with Tween-80 107 % of control | endpoint: mean survival time, dose: 5.0 mg/kg/injection, schedule: Q01DX009 (ip), vehicle: saline with Tween-80 105 % of control | endpoint: mean survival time, dose: 10.0 mg/kg/injection, schedule: Q01DX009 (ip), vehicle: saline with Tween-80 106 % of control | endpoint: mean survival time, dose: 20.0 mg/kg/injection, schedule: Q01DX009 (ip), vehicle: saline with Tween-80 104 % of control and 111 % of control | endpoint: mean survival time, dose: 40.0 mg/kg/injection, schedule: Q01DX009 (ip), vehicle: saline with Tween-80 107 % of control | endpoint: mean survival time, dose: 80.0 mg/kg/injection, schedule: Q01DX009 (ip), vehicle: saline with Tween-80 107 % of control | endpoint: mean survival time, dose: 160.0 mg/kg/injection, schedule: Q01DX009 (ip), vehicle: saline with Tween-80 92 % of control

CSc1nc(Cl)cc(Sc2nc(N)nc3nc[nH]c23)n1
inactive: endpoint: mean survival time, dose: 150.0 mg/kg/injection, schedule: Q01DX009 (ip), vehicle: Klucel (hydroxypropylcellulose) (HPC) 97 % of control
active: endpoint: mean survival time, dose: 18.75 mg/kg/injection, schedule: Q01DX009 (ip), vehicle: Klucel (hydroxypropylcellulose) (HPC) 173 % of control | endpoint: mean survival time, dose: 37.5 mg/kg/injection, schedule: Q01DX009 (ip), vehicle: Klucel (hydroxypropylcellulose) (HPC) 175 % of control

NC(CCSc1ccccc1)C(=O)O (stereo not given)
inactive: [14] 104 % of control | [15] 102 % of control | [16] 88 % of control

Cc1ccc(CNc2cc(C)ccn2)cc1
inactive: [10] 100 % of control | [12] 91 % of control

CCOC(=O)CCC(NC(=O)c1ccc(NCc2ccc3nc(N)nc(N)c3c2C)cc1)C(=O)OCC (stereo not given)
inactive: endpoint: mean survival time, dose: 0.01 mg/kg/injection, schedule: Q01DX009 (ip), vehicle: saline + alcohol 104 % of control | endpoint: mean survival time, dose: 0.02 mg/kg/injection, schedule: Q01DX009 (ip), vehicle: saline + alcohol 116 % of control | endpoint: mean survival time, dose: 0.03 mg/kg/injection, schedule: Q01DX009 (ip), vehicle: saline + alcohol 113 % of control | endpoint: mean survival time, dose: 0.06 mg/kg/injection, schedule: Q01DX001 (ip), vehicle: saline + alcohol 98 % of control and 101 % of control | endpoint: mean survival time, dose: 0.06 mg/kg/injection, schedule: Q01DX009 (ip), vehicle: saline + alcohol 113 % of control | endpoint: mean survival time, dose: 0.11 mg/kg/injection, schedule: Q01DX009 (ip), vehicle: saline + alcohol 110 % of control | endpoint: mean survival time, dose: 0.12 mg/kg/injection, schedule: Q01DX001 (ip), vehicle: saline + alcohol 112 % of control | endpoint: mean survival time, dose: 0.13 mg/kg/injection, schedule: Q01DX001 (ip), vehicle: saline + alcohol 104 % of control | endpoint: mean survival time, dose: 0.25 mg/kg/injection, schedule: Q01DX001 (ip), vehicle: saline + alcohol 121 % of control and 111 % of control | endpoint: mean survival time, dose: 1.0 mg/kg/injection, schedule: Q01DX001 (ip), vehicle: saline + alcohol 122 % of control

CCc1cccc(OCC(C)=O)c1
inactive: endpoint: mean survival time, dose: 75.0 mg/kg/injection, schedule: Q01DX001 (ip), vehicle: saline with Tween-80 97 % of control | endpoint: mean survival time, dose: 150.0 mg/kg/injection, schedule: Q01DX001 (ip), vehicle: saline with Tween-80 101 % of control | endpoint: mean survival time, dose: 300.0 mg/kg/injection, schedule: Q01DX001 (ip), vehicle: saline with Tween-80 100 % of control

ClCCN(CCCl)c1ccc(N=Nc2ccc(Cl)cc2)cc1
inactive: endpoint: mean survival time, dose: 100.0 mg/kg/injection, schedule: Q01DX001 (ip), vehicle: Klucel (hydroxypropylcellulose) (HPC) 94 % of control | endpoint: mean survival time, dose: 200.0 mg/kg/injection, schedule: Q01DX001 (ip), vehicle: Klucel (hydroxypropylcellulose) (HPC) 94 % of control | endpoint: mean survival time, dose: 400.0 mg/kg/injection, schedule: Q01DX001 (ip), vehicle: Klucel (hydroxypropylcellulose) (HPC) 97 % of control

CCOC(=O)C1C2CC(O)C(O)CC21 (stereo not given)
inactive: endpoint: median survival time, dose: 25.0 mg/kg/injection, schedule: Q04DX003 (ip), vehicle: saline with Tween-80 90 % of control | endpoint: median survival time, dose: 50.0 mg/kg/injection, schedule: Q04DX003 (ip), vehicle: saline with Tween-80 90 % of control
